In one assay the target is T1, BRD4 (BDI_K57-E168) (Homo sapiens, UniProt O60885).
T1 construct: BD1: amino acids K57-E168; made in house
Briefly: TR-FRET bromodomain binding assay, first bromodomain of BRD4. As to conditions: 100 nM probe. How it is done: (§1) Bromodomain Domain Binding Assay
(§2) A time-resolved fluorescence resonance energy transfer (TR-FRET) assay was used to determine the affinities of compounds of the Examples listed in Table 1 for each bromodomain of BRD4. His-tagged first (BD1: amino acids K57-E168) and second (BD2: amino acids […]) bromodomains of BRD4 were expressed and purified. An Alexa647-labeled BET-inhibitor was used as the fluorescent probe in the assay.
(§3) Compound dilution series were prepared in DMSO via an approximately 3-fold serial dilution from one of the following: […]
(§4) Assay method E: 0.47 mM to 7.8 nM […]
(§5) Assay method G: 0.047 mM to 0.78 nM
(§6) or 5-fold serial dilution from one of the following: […]
(§7) Assay method B: 2.5 mM-797 nM […]
(§8) For Assay methods B, E, and G: Compound dilutions were added directly into white, low-volume assay plates (Perkin Elmer Proxiplate 384 Plus#6008280) using a Labcyte Echo in conjunction with Labcyte Access and Thermo Multidrop CombinL robotics. Compounds were then suspended in eight microliters (μL) of assay buffer (20 mM Sodium Phosphate, pH 6.0, 50 mM NaCl, 1 mM Ethylenediaminetetraacetic acid disodium salt dihydrate, 0.01% Triton X-100, 1 mM DL-Dithiothreitol) containing His-tagged bromodomain, Europium-conjugated anti-His antibody (Invitrogen PV5596) and Alexa-647-conjugated probe.
(§9) The final concentration of 1× assay mixture for assay methods A, B, C, D, E, F, and G contains 2% DMSO, 8 nM His-tagged bromodomain, 1 nM Europium-conjugated anti-His-tag antibody and 100 nM or 30 nM probe (for BDI or BDII, respectively) and compound concentration in the range of: 50 μM-16 nM for method A, 49.02 μM-15.63 nM for method B, 25 μM-423 pM for method C, 10 μM-169 pM for method D, 9.19 μM-150 pM for method E, 5 μM-85 pM for method F, and 0.92 μM-15 pM for method G.
(§10) After a one-hour equilibration at room temperature, TR-FRET ratios were determined using an Envision multilabel plate reader (Ex 340, Em 495/520).
(§11) TR-FRET data were normalized to the means of 24 no-compound controls (“high”) and 8 controls containing 1 μM un-labeled probe (“low”). Percent inhibition was plotted as a function of compound concentration and the data were fit with the 4 parameter logistic equation to obtain IC50s. Inhibition constants (Ki) were calculated from the IC50s, probe Kd and probe concentration. Typical Z′ values were between 0.65 and 0.75. The minimum significant ratio was determined to evaluate assay reproducibility (Eastwood et al., (2006) J Biomol Screen, 11: 253-261). The MSR was determined to be 2.03 for BDI and 1.93 for BDII, and a moving MSR (last six run MSR overtime) for both BDI and BDII was typically <3.
A general note: In TR-FRET formats the signal depends on donor and acceptor labels being close together.

The target in the next assay is T2, BRD4 (BDII_E352-M457) (Homo sapiens, UniProt O60885).
T2 construct: protocol; made in house
As to the kind of experiment: TR-FRET bromodomain binding assay, second bromodomain of BRD4. The following applies: 30 nM probe. How it is done: as §1, §2, §3, §4, §5, §6, §7, §8, §9, §10, §11

The mark [1] stands for this setting: TR-FRET assay protocol G (compound 0.92 μM-15 pM).
Setting [2] is: TR-FRET assay protocol E (compound 9.19 μM-150 pM).

Some results are limits rather than exact numbers.

Consider “2-(3-(10-methyl-7-((methylsulfonyl)methyl)-11-oxo-10,11-dihydro-1H-1,4,10-triazadibenzo[cd,f]azulen-4(3H)-yl)pyrrolidin-1-yl)acetic acid [Example 179]”, for which the figures for the Ki at BRD4 (BDI_K57-E168) (setting [1]) and at BRD4 (BDII_E352-M457) (setting [1]) were 20.1 nM and 80.7 nM, respectively.
Turning to “4-(1-ethylpiperidin-3-yl)-10-methyl-7-((methylsulfonyl)methyl)-3,4-dihydro-1H-1,4,10-triazadibenzo[cd,f]azulen-11(10H)-one [Example 190]”, the inhibitory constant (Ki) – broadly, a dissociation constant, usually derived from enzyme kinetics or from competition with a known ligand – on BRD4 (BDI_K57-E168) (setting [1]) is 26.7 nM; at BRD4 (BDII_E352-M457) (setting [1]), 30.9 nM.
For the compound “4-((1-isopropylpiperidin-4-yl)methyl)-10-methyl-7-((methylsulfonyl)methyl)-3,4-dihydro-1H-1,4,10-triazadibenzo[cd,f]azulen-11(10H)-one [Example 183]”, the Ki at BRD4 (BDI_K57-E168) (setting [1]) was 3.84 nM; at BRD4 (BDII_E352-M457) (setting [1]), 15.5 nM.
For “4-([1,1′-biphenyl]−4-ylsulfonyl)-10-methyl-7-((methylsulfonyl)methyl)-3,4-dihydro-1H-1,4,10-triazadibenzo[cd,f]azulen-11(10H)-one [Example 75]” the same measures were > 238 nM and > 408 nM.
On the same counts, the results for “7-fluoro-10-methyl-3,4-dihydro-1H-1,4,5,10-tetraazadibenzo[cd,f]azulen-11(10H)-one [Example 38]” are > 238 nM and > 408 nM.
For “10-methyl-7-((methylsulfonyl)methyl)-4-(1-((2-(trimethylsilyl)ethoxy)methyl)-1H-indazol-5-yl)-3,4-dihydro-1H-1,4,10-triazadibenzo[cd,f]azulen-11(10H)-one [Example 233]” the same measures were 6.15 nM and 3.77 nM.
As to `COC(=O)CCC1Nc2ccc(CS(C)(=O)=O)cc2-c2cn(C)c(=O)c3[nH]cc1c23` (racemic) [Example 17, methyl 3-(10-methyl-7-((methylsulfonyl)methyl)-11-oxo-3,4,10,11-tetrahydro-1H-1,4,10-triazadibenzo[cd,f]azulen-3-yl)propanoate], the Ki at BRD4 (BDI_K57-E168) (setting [2]) is 165 nM; at BRD4 (BDII_E352-M457) (setting [2]) it was 53.9 nM.
Turning to `Cn1cc2c3c(c[nH]c3c1=O)CN(CC1CCOC(C)(C)C1)c1ccc(CS(C)(=O)=O)cc1-2` (racemic) [Example 152, 4-((2,2-dimethyltetrahydro-2H-pyran-4-yl)methyl)-10-methyl-7-((methylsulfonyl)methyl)-3,4-dihydro-1H-1,4,10-triazadibenzo[cd,f]azulen-11(10H)-one], the figures for the inhibition constant (Ki) on BRD4 (BDI_K57-E168) (setting [1]) and at BRD4 (BDII_E352-M457) (setting [1]) were 7.18 nM and 11 nM, respectively.
On the same counts, the results for `CCOCCC(C)N1Cc2c[nH]c3c(=O)n(C)cc(c23)-c2cc(CS(C)(=O)=O)ccc21` (racemic) [Example 153, 4-(4-ethoxybutan-2-yl)-10-methyl-7-((methylsulfonyl)methyl)-3,4-dihydro-1H-1,4,10-triazadibenzo[cd,f]azulen-11(10H)-one] are 3.72 nM and 9.18 nM.
For `Cn1cc2c3c(c[nH]c3c1=O)C(C(=O)NCCC#N)N(c1ccc(F)cc1F)c1ccc(CS(C)(=O)=O)cc1-2` (racemic) [Example 154, N-(2-cyanoethyl)-4-(2,4-difluorophenyl)-10-methyl-7-((methylsulfonyl)methyl)-11-oxo-3,4,10,11-tetrahydro-1H-1,4,10-triazadibenzo[cd,f]azulene-3-carboxamide] the same measures were 50.7 nM and 53.1 nM.
On the same counts, the results for `Cn1cc2c3c(c[nH]c3c1=O)C(C(=O)NCCCc1ccccc1)N(c1ccc(F)cc1F)c1ccc(CS(C)(=O)=O)cc1-2` (racemic) [Example 160, 4-(2,4-difluorophenyl)-10-methyl-7-((methylsulfonyl)methyl)-11-oxo-N-(3-phenylpropyl)-3,4,10,11-tetrahydro-1H-1,4,10-triazadibenzo[cd,f]azulene-3-carboxamide] are 125 nM and 118 nM.
Consider `Cn1cc2c3c(c[nH]c3c1=O)C(C(=O)NC1(CO)CC1)N(c1ccc(F)cc1F)c1ccc(CS(C)(=O)=O)cc1-2` (racemic) [Example 166, 4-(2,4-difluorophenyl)-N-(1-(hydroxymethyl)cyclopropyl)-10-methyl-7-((methylsulfonyl)methyl)-11-oxo-3,4,10,11-tetrahydro-1H-1,4,10-triazadibenzo[cd,f]azulene-3-carboxamide], for which the figures for the Ki on BRD4 (BDI_K57-E168) (setting [1]) and on BRD4 (BDII_E352-M457) (setting [1]) were 60 nM and 73.3 nM, respectively.
With `Cn1cc2c3c(c[nH]c3c1=O)C(C(=O)NC1(C)CC1)N(c1ccc(F)cc1F)c1ccc(CS(C)(=O)=O)cc1-2` (racemic) [Example 167, 4-(2,4-difluorophenyl)-10-methyl-N-(1-methylcyclopropyl)-7-((methylsulfonyl)methyl)-11-oxo-3,4,10,11-tetrahydro-1H-1,4,10-triazadibenzo[cd,f]azulene-3-carboxamide], the Ki on BRD4 (BDI_K57-E168) (setting [1]) is 69.2 nM; at BRD4 (BDII_E352-M457) (setting [1]), 76.3 nM.
For `COCCC(C)N1Cc2c[nH]c3c(=O)n(C)cc(c23)-c2cc(CS(C)(=O)=O)ccc21` (racemic) [Example 186, 4-(4-methoxybutan-2-yl)-10-methyl-7-((methylsulfonyl)methyl)-3,4-dihydro-1H-1,4,10-triazadibenzo[cd,f]azulen-11(10H)-one] the same measures were 4.21 nM and 9.2 nM.
On the same counts, the results for `CC(C1CCOCC1)N1Cc2c[nH]c3c(=O)n(C)cc(c23)-c2cc(CS(C)(=O)=O)ccc21` (racemic) [Example 188, 10-methyl-7-((methylsulfonyl)methyl)-4-(1-(tetrahydro-2H-pyran-4-yl)ethyl)-3,4-dihydro-1H-1,4,10-triazadibenzo[cd,f]azulen-11(10H)-one] are 3.64 nM and 4.62 nM.
On the same counts, the results for `Cn1cc2c3c(c[nH]c3c1=O)C(Cn1ccccc1=O)N(c1ccc(F)cc1F)c1ccc(CS(C)(=O)=O)cc1-2` (single isomer, unassigned) [Example 251] are > 238 nM and 142 nM.
Regarding `COC(=O)CC[C@H]1c2c[nH]c3c(=O)n(C)cc(c23)-c2cc(CS(C)(=O)=O)ccc2N1c1ccc(F)cc1F` (single isomer, unassigned) [Example 269], the inhibitory constant (Ki) at BRD4 (BDI_K57-E168) (setting [1]) worked out at 5.69 nM; at BRD4 (BDII_E352-M457) (setting [1]), 0.92 nM.
Regarding `Cn1cc2c3c(c[nH]c3c1=O)CNc1ccc(S(C)(=O)=O)cc1-2` [Example 4, 10-methyl-7-(methylsulfonyl)-3,4-dihydro-1H-1,4,10-triazadibenzo[cd,f]azulen-11(10H)-one], the inhibition constant (Ki) amounted to 2000 nM on BRD4 (BDI_K57-E168) (setting [2]) and 3090 nM on BRD4 (BDII_E352-M457) (setting [2]).
As to `Cn1cc2c3c(c[nH]c3c1=O)CNc1ccc(CS(C)(=O)=O)cc1-2` [Example 5, 10-methyl-7-((methylsulfonyl)methyl)-3,4-dihydro-1H-1,4,10-triazadibenzo[cd,f]azulen-11(10H)-one], the Ki on BRD4 (BDI_K57-E168) (setting [2]) is 765 nM; at BRD4 (BDII_E352-M457) (setting [2]) it was 758 nM.
With `CCOC(=O)C1Nc2ncc(F)cc2-c2cn(C)c(=O)c3[nH]cc1c23` (centres unmarked) [Example 39, ethyl 7-fluoro-10-methyl-11-oxo-3,4,10,11-tetrahydro-1H-1,4,5,10-tetraazadibenzo[cd,f]azulene-3-carboxylate], the inhibitory constant (Ki) was > 238 nM on BRD4 (BDI_K57-E168) (setting [1]) and > 408 nM on BRD4 (BDII_E352-M457) (setting [1]).
For `CCOC(=O)C1c2c[nH]c3c(=O)n(C)cc(c23)-c2cc(C)cnc2N1c1ccc(F)cc1` (centres unmarked) [Example 43, ethyl 4-(4-fluorophenyl)-7,10-dimethyl-11-oxo-3,4,10,11-tetrahydro-1H-1,4,5,10-tetraazadibenzo[cd,f]azulene-3-carboxylate] the same measures were 7.29 nM and 24.7 nM.
On the same counts, the results for `CCCCC(CC)COC(=O)N1Cc2c[nH]c3c(=O)n(C)cc(c23)-c2cc(CS(C)(=O)=O)ccc21` (centres unmarked) [Example 53, 2-ethylhexyl 10-methyl-7-((methylsulfonyl)methyl)-11-oxo-10,11-dihydro-1H-1,4,10-triazadibenzo[cd,f]azulene-4(3H)-carboxylate] are 4.78 nM and 21.9 nM.

Values taken from US10035800B2 (AbbVie Inc., priority 2013, dated 2018).
